In test [1] the target is T1, Full-length PRMT5 enzyme co-expressed with MEP50 (Homo sapiens (Human), UniProt O14744). Kind of test: PRMT5 Biochemical Assay. The settings on record: 200 nM histone H4 derived peptide substrate, 1 μM S-Adenosyl methionine, 4 hours at 37° C, Transcreener EPIGEN fluorescence polarisation. The method, then: Compounds of the invention may be tested for in vitro activity in the following assay: A histone H4 derived peptide is used as substrate (amino acid sequence: […]NH2). Full-length PRMT5 enzyme (NCBI Reference sequence NP-006100.2) was co-expressed with Hiss-MEP50 in insect cells and purified via Nickel immobilized metal affinity and gel filtration chromatography (“the enzyme”).
T1 sequence (O14744 whole entry): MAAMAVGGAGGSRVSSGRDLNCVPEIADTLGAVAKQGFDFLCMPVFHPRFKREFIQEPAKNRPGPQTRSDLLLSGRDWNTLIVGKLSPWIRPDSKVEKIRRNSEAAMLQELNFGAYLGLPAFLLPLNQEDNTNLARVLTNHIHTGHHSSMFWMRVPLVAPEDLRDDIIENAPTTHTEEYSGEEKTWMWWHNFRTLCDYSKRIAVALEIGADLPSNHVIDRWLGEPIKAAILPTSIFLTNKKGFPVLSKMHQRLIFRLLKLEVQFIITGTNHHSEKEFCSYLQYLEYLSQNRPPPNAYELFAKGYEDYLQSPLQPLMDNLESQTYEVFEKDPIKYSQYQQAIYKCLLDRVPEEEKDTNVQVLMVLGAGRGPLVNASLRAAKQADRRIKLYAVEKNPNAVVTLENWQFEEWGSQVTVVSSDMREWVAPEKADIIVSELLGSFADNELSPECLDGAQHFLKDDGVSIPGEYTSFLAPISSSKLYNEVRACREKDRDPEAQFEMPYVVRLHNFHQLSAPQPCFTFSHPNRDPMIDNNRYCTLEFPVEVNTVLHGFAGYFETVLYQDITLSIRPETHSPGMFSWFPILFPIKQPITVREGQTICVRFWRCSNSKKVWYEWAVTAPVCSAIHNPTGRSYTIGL
T1 sequence (Q9BQA1 whole entry partner): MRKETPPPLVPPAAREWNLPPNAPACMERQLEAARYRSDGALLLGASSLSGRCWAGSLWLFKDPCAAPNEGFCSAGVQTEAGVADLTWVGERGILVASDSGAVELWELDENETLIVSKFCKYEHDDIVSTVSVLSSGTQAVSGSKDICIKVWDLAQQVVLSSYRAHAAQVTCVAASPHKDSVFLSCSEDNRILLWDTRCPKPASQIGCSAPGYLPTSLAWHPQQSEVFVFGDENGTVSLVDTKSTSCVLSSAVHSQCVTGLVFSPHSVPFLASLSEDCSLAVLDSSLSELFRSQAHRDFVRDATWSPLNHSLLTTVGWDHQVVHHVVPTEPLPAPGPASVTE
The 6 μL assay reactions are run in Greiner brand black 384-well low volume plates. All reactions contained assay buffer (phosphate buffered saline, 0.01% (v/v) Tween-20, 0.01% (w/v) albumin from chicken egg white, 1 mM dithiothreitol, 200 nM peptide substrate, 1 μM S-Adenosyl methionine, and 15 ng/reaction enzyme, with the enzyme being omitted from negative control reactions. Compounds were added in a volume of 100 nL from dilution series prepared in DMSO, positive and negative control reactions receiving the same volume DMSO without compound. The plates were sealed with adhesive seals and incubated for 4 hours at 37° C. Reaction progress was measured using the Transcreener™ EPIGEN methyltransferase assay (BellBrook Labs, Madison, Wis.) as recommended by the manufacturer. To each reaction 2 μL detection mix were added, containing coupling enzymes, fluorescence polarisation tracer, and AMP antibody. Plates were incubated for 90 min before being read on a PerkinElmer EnVision™ plate reader in fluorescence polarisation mode.
(In general: In fluorescence polarisation assays a small probe gives low polarisation when free and higher when bound to something large.)

Test [2] deals with T1, Full-length PRMT5 enzyme co-expressed with MEP50. In words: Revised PRMT5 Biochemical Assay. Conditions: 1 μM histone H4 derived peptide substrate, 1 μM S-Adenosyl methionine, 4 hours at 37 degree Celsius, Transcreener EPIGEN fluorescence polarisation. The method in brief: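 Full-length human PRMT5 co-expressed with His-MEP50 in insect cells (15 ng/reaction), 1 μM H4-derived peptide and 1 μM SAM in PBS/0.01% Tween-20/egg albumin/1 mM DTT, 4 h at 37 °C. SAH formation read by Transcreener EPIGEN fluorescence polarisation after 90 min detection. IC50 from four-parameter fit of plate-normalised % inhibition.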

In test [3] the test system is symmetrical dimethylation of arginine (Di-Methyl Histone H4 Arginine 3) in cell line TE11. In words: Revised PRMT5 Biomarker Assay. The settings on record: Homo sapiens, TE-11; TE11 cells, 72 hours incubation, immunofluorescence, corrected for cell number (Hoechst 33342), plate reader based. The method, then:
Compounds of the invention may be tested for potency to inhibit symmetrical dimethylation of arginine in the following assay:
The cell line TE11 was seeded at a density of 6,000 cells per well in 96 well optical quality tissue culture plates in DME medium and 10% foetal bovine serum, and allowed to adhere for 5 hours under standard culture conditions (37 degree Celsius, 5% CO2). Compound dilutions prepared in DMSO were added to the medium, with negative control wells reserved for treatment with DMSO only and positive controls receiving a potent PRMT5 inhibitor compound at 1 μM concentration. After incubation for 72 hours, the cells were fixed with 3.7% formaldehyde in PBS for 30 minutes at room temperature, washed with phosphate buffer saline and blocked with Odyssey blocking buffer (LI-COR, Lincoln, Nebr.). Rabbit anti-Di-Methyl Histone H4 Arginine 3 specific antibody (Epigentek) in Odyssey blocking buffer was added and incubated for 14 hours at 4 degree Celsius. After washing, anti-rabbit secondary antibody labelled with Alexa647 dye (LifeTechnologies) and Hoechst 33342 (1 μg/mL, SigmaAldrich) were added for 1 hour incubation. Plates were washed and read on a PerkinElmer Envision 2103 in fluorescence intensity scanning mode (24 scans across the well area). The methylation level information was corrected for the number of cells as expressed by the Hoechst 33342 stain, converted to percent inhibition relative to controls on the same plate and the data fitted against a four-parameter logistic model to determine the 50% inhibitory concentration (IC50 plate-reader based). Alternatively, the plates were imaged on a PerkinElmer Phenix high content imaging platform. Using a Columbus image analysis pipeline, individual nuclei were located by Hoechst 33342 stain and the methylation level was calculated from the Alexa647-related intensity in the same area. The resulting mean intensity per cell was directly converted to percent inhibition as outlined above (IC50, imager based)).

pIC50: −log10 of the molar value.

Regarding `O=C(NC[C@H](O)CNC1Cc2ccccc2C1)c1cnn(-c2cccc(Cl)c2)c1` [Compound 10, (R)-1-(3-Chlorophenyl)-N-(3-((2,3-dihydro-1H-inden-2-yl)amino)-2-hydroxypropyl)-1H-pyrazole-4-carboxamide], the pIC50 (commonly −log10 of the IC50, conventionally taken in molar units) in test [1] is 5.84.
Consider `O=C(NC[C@H](O)CNC1Cc2ccccc2C1)c1ccc(N2CCOCC2)nc1` [Compound 11, (R)-N-(3-((2,3-Dihydro-1H-inden-2-yl)amino)-2-hydroxypropyl)-6-morpholinonicotinamide], for which the pIC50 in test [1] was 6.08.
On the same count and under the same terms, as for `Cc1nnc(-c2ccc(C(=O)NC[C@H](O)CNC3Cc4ccccc4C3)cc2)o1` [Compound 12, (R)-N-(3-((2,3-Dihydro-1H-inden-2-yl)amino)-2-hydroxypropyl)-4-(5-methyl-1,3,4-oxadiazol-2-yl)benzamide], the figure is 6.16; as for `Cc1nnc(-c2ccc(C(=O)NC[C@@H](O)CNC3Cc4ccccc4C3)cc2)o1` [Compound 17, (S)-N-(3-((2,3-Dihydro-1H-inden-2-yl)amino)-2-hydroxypropyl)-4-(5-methyl-1,3,4-oxadiazol-2-yl)benzamide], 6.20; as for `O=C(NCC(O)CNC1Cc2ccccc2C1)c1ccc(C(=O)N2CCC2)cc1` (stereo not drawn) [Compound 20, 4-(Azetidine-1-carbonyl)-N-(3-((2,3-dihydro-1H-inden-2-yl)amino)-2-hydroxypropyl)benzamide], 6.01.
In turn, `O=C(NCC(O)CNC1Cc2ccccc2C1)c1ccc(C(=O)N2CCCC2)cc1` (stereo not drawn) [Compound 21, N-(3-((2,3-Dihydro-1H-inden-2-yl)amino)-2-hydroxypropyl)-4-(pyrrolidine-1-carbonyl)benzamide] showed a pIC50 in test [1] of 5.95.
With `O=C(NCC(O)CNC1Cc2ccccc2C1)c1cccc(-c2ccccc2)c1` (stereo not drawn) [Compound 25, N-(3-((2,3-Dihydro-1H-inden-2-yl)amino)-2-hydroxypropyl)[1,1′-biphenyl]-3-carboxamide], the pIC50 in test [1] is 5.65.
`O=C(NCC(O)CNC1Cc2ccccc2C1)c1ccccc1-c1ccccc1` (stereo not drawn) [Compound 26, N-(3-((2,3-Dihydro-1H-inden-2-yl)amino)-2-hydroxypropyl)-[1,1′-biphenyl]-2-carboxamide]: in test [1], the negative-log IC50 (pIC50) is 5.41.
In test [1], `O=C(NCC(O)CNC1Cc2ccccc2C1)c1ccc(C(=O)N2CCOCC2)cc1F` (stereo not drawn) [Compound 27, N-(3-((2,3-Dihydro-1H-inden-2-yl)amino)-2-hydroxypropyl)-2-fluoro-4-(morpholine-4-carbonyl)benzamide] showed a pIC50 of 6.36.
As to `O=C(NCC(O)CNC1Cc2ccc(Br)cc2C1)c1ccc(Cl)cc1` (stereo not drawn) [Compound 28, N-(3-((5-Bromo-2,3-dihydro-1H-inden-2-yl)amino)-2-hydroxypropyl)-4-chlorobenzamide], in test [1], the pIC50 was 4.16.
For `O=C(NCCC(O)CNC1Cc2ccccc2C1)c1ccc(Cl)cc1` (stereo not drawn) [Compound 29, 4-Chloro-N-(4-((2,3-dihydro-1H-inden-2-yl)amino)-3-hydroxybutyl)benzamide], the pIC50 in test [1] is 5.35.
On the same count and under the same terms, under `O=C(NCC(O)CNC1CCc2ccc(F)cc2C1)c1ccc(Cl)cc1` (stereo not drawn) [Compound 31, 4-Chloro-N-(3-((7-fluoro-1,2,3,4-tetrahydronaphthalen-2-yl)amino)-2-hydroxypropyl)benzamide] stands 4.65; under `O=C(NCC(O)CNC1CCc2cc(F)ccc2C1)c1ccc(Cl)cc1` (stereo not drawn) [Compound 32, 4-Chloro-N-(3-((6-fluoro-1,2,3,4-tetrahydronaphthalen-2-yl)amino)-2-hydroxypropyl)benzamide], 4.73.
The same measure, in the same setting: as for `CN(CC(O)CNC(=O)c1ccc(Cl)cc1)C1CCc2ccccc2C1` (stereo not drawn) [Compound 33, 4-Chloro-N-(2-hydroxy-3-(methyl(1,2,3,4-tetrahydronaphthalen-2-yl)amino)propyl) benzamide], the figure is 4.60.
Still for that read-out and setting: as for `O=C(NCC(O)CNC1Cc2ccccc21)c1ccc(Cl)cc1` (stereo not drawn) [Compound 34, N-(3-(Bicyclo[4.2.0]octa-1(6),2,4-trien-7-ylamino)-2-hydroxypropyl)-4-chlorobenzamide], the figure is 4.39.
In turn, `O=C(NCC(O)CNC1Cc2ccccc2C1)c1ccc(C(=O)N2CC3CCC(C2)O3)cc1` (stereo not drawn) [Compound 39, 4-(8-Oxa-3-azabicyclo[3.2.1]octane-3-carbonyl)-N-(3-((2,3-dihydro-1H-inden-2-yl)amino)-2-hydroxypropyl)benzamide] gave a pIC50 in test [1] of 6.92.
As for `CC1(C)CN(C(=O)c2ccc(C(=O)NCC(O)CNC3Cc4ccccc4C3)cc2)CCO1` (stereo not drawn) [Compound 41, N-(3-((2,3-Dihydro-1H-inden-2-yl)amino)-2-hydroxypropyl)-4-(2,2-dimethylmorpholine-4-carbonyl)benzamide], the pIC50 in test [1] was 6.80.
`CC(=O)N1CCC(Nc2cncc(C(=O)NCC(O)CNC3Cc4ccccc4C3)c2)CC1` (stereo not drawn) [Compound 53, 5-((1-Acetylpiperidin-4-yl)amino)-N-(3-((2,3-dihydro-1H-inden-2-yl)amino)-2-hydroxypropyl)nicotinamide] had a negative logarithm of the IC50 (pIC50) in test [2] of 6.79. The midpoint of inhibition in test [3], the IC50, lay at 0.662 µM.
Compound `CC(=O)N1CCC(Nc2cc(C(=O)NC[C@H](O)CNC3Cc4ccccc4C3)ccn2)CC1` [Compound 55, (R)-2-((1-Acetylpiperidin-4-yl)amino)-N-(3-((2,3-dihydro-1H-inden-2-yl)amino)-2-hydroxypropyl)isonicotinamide] showed a pIC50 in test [2] of 6.35. Half-maximal inhibition in test [3] (IC50) was put at 0.122 µM.
Take `CC(=O)N1CCC(Nc2cc(C(=O)NC[C@@H](O)CNC3Cc4ccccc4C3)ccn2)CC1` [Compound 56, (S)-2-((1-Acetylpiperidin-4-yl)amino)-N-(3-((2,3-dihydro-1H-inden-2-yl)amino)-2-hydroxypropyl)isonicotinamide]: the pIC50 in test [2] was 7.01. In addition, the midpoint of inhibition in test [3], the IC50, lay at 0.007 µM.
Compound `CC[C@H]1COCCN1C(=O)c1ccc(C(=O)NC[C@@H](O)CNC2Cc3ccccc3C2)cc1` [Compound 70, N-((S)-3-((2,3-dihydro-1H-inden-2-yl)amino)-2-hydroxypropyl)-4-((S)-3-ethylmorpholine-4-carbonyl)benzamide] gave a pIC50 in test [2] of 6.80. In addition, the 50% inhibitory concentration (IC50) (as a rule, the point on the concentration scale where inhibition reaches its midpoint) in test [3] worked out at 0.015 µM.
In the case of `CCOc1cc(C(=O)N2CCOCC2)ccc1C(=O)NC[C@@H](O)CNC1Cc2ccccc2C1` [Compound 75, (S)-N-(3-((2,3-dihydro-1H-inden-2-yl)amino)-2-hydroxypropyl)-2-ethoxy-4-(morpholine-4-carbonyl)benzamide], in test [2], the pIC50 is 7.19. This compound also had an IC50 in test [3] of 0.004 µM.
As to `CCOc1cc(C(=O)N2CCCC2)ccc1C(=O)NC[C@@H](O)CNC1Cc2ccccc2C1` [Compound 76, (S)-N-(3-((2,3-dihydro-1H-inden-2-yl)amino)-2-hydroxypropyl)-2-ethoxy-4-(pyrrolidine-1-carbonyl)benzamide], the pIC50 in test [2] is 6.68. Besides, the midpoint of inhibition in test [3], the IC50, lay at 0.008 µM.
In test [2], `CCOc1cc(C(=O)N2C3CCC2COC3)ccc1C(=O)NC[C@@H](O)CNC1Cc2ccccc2C1` [Compound 77, 4-(3-oxa-8-azabicyclo[3.2.1]octane-8-carbonyl)-N-((S)-3-((2,3-dihydro-1H-inden-2-yl)amino)-2-hydroxypropyl)-2-ethoxybenzamide] had a pIC50 of 7.54. In test [3], the IC50 is 0.0005 µM.
In turn, `O=C(NC[C@@H](O)CNC1Cc2ccccc2C1)c1ccc(C(=O)N2C3CCC2COC3)cc1` [Compound 103, 4-(3-oxa-8-azabicyclo[3.2.1]octane-8-carbonyl)-N-((S)-3-((2,3-dihydro-1H-inden-2-yl)amino)-2-hydroxypropyl)benzamide] had a pIC50 in test [2] of 6.92. The same compound returned an IC50 in test [3] of 0.017 µM.

The values above are taken from patent US10005792B2, “Aminoindane-, aminotetrahydronaphthalene- and aminobenzocyclobutane-derived PRMT5-inhibitors” (CTXT PTY LTD, priority 2014, dated 2018).
